Data as given in patent EP0400785A2, “Ultraviolet curable phenyl and acrylamide group-containing silicone compositions” (DOW CORNING CORPORATION, priority 1989, dated 1990).

Experiments:
Assay type in all cases: physicochemical
[1] = Heat aging / thermal stability of cured composition in oven at 150°C (durometer); settings: in Acrylamide-polymer B; after 20 hours at 150°C in an oven
Source text: (§1) Compositions were made from Acrylamide-polymer B and various compounds which might be considered useful as photosensitization systems. These included P-1 = 2 hydroxy-2-methylphenylpropan-1-one (Darocur^TM 1173) P-2 = diethoxyacetophenone P-3 = (1-hydroxycyclohexyl)phenylmethanone (Irgacure^TM 184) P-4 = benzophenone P-5 = a 50/50 weight mixture of P-1 and diisopropylaminoethanol. Each of the photosensitization systems were used in an amount of one weight percent except P-5 which was used in an amount of two weight percent. The weight percentage was based on the weight of Acrylamide-blend B. Each of the compositions were cured for a defined period of time by exposure to ultraviolet radiation on the LCU described in Example 2, set for 3 seconds per pass which measured about 400 mJ/cm² using a Light Bug. The hardness of the cured composition was measured by using equipment manufactured by Instrument MFG Co. on the Shore OO durometer scale using a 0.25 inch thick section of the cured material. The durometer was determined initially, after heat aging for 20 hours at 150°C. in an oven and after 20 hours in an autoclave at 12 1°C. and 15 psi pressure.
(§2) A gel composition was prepared by mixing 98 parts of Acrylamide-blend E, 1 part of (1-hydroxycyclohexyl)phenylmethanone and 1 part of a heat stability additive. Sodium and potassium contents were determined on uncured samples of the gel composition by using flame photometry of acid ashed gel composition after removal of silica by treatment with hydrofluoric acid. The amount of sodium and potassium were each less than 2 ppm. […] The irradiation dose was determined by using an IL 390 Light Bug manufactured by International Light of (Newburyport, Mass.). […] As determined by ASTM-D150, the dielectric constant at 100 Hz was 3.0 and at 100,000 Hz was 3.0. As determined by ASTM-D150, the dissipation factor at 100 Hz was 0.006 and at 100,000 Hz was 0.002. The glass transition temperature was -113°C. and there was no melting transition temperature as determined by differential scanning calorimetry. The thermal stability was determined by placing a sample of the cured gel composition in a forced air oven at 150°C. […] The autoclave stability was determined by placing a sample of cured gel composition in an autoclave at 121°C. with a pressure of 2.1 kg/cm².
(§3) A composition was prepared by blending 67 parts of Acrylamide-polymer D, 25 parts of 1,4 -butanediol diacrylate, 3 parts of 1-hydroxy-2-methyl-1-phenylpropan-1-one, 5 parts of an adhesion additive, 100 ppm of phenothiazine and 100 ppm of the monomethyl ether of hydroquinone. […] The ionic purity was determined and there was less than 2 ppm of sodium and less than 2 ppm potassium. […]

[2] = Autoclave stability of cured composition at 121°C (durometer); settings: in Acrylamide-polymer B; after 20 hours in an autoclave at 12 1°C and 15 psi
Source text: as §1, §2, §3

[3] = Durometer hardness of cured composition (Shore scales); settings: in Acrylamide-polymer B; 0.25 inch thick section of cured material
Source text: as §1, §2, §3

With `O=C(c1ccccc1)C1(O)CCCCC1` [P-3, (1-hydroxycyclohexyl)phenylmethanone] the “DUROMETER HEAT AGED” value [1] was 42 Shore OO, the “DUROMETER AUTOCLAVE” value [2] was 40 Shore OO and the “DUROMETER INITIAL” value [3] was 41 Shore OO.
For `O=C(c1ccccc1)c1ccccc1` [P-4, benzophenone], the “DUROMETER HEAT AGED” value [1] was 43 Shore OO, the “DUROMETER AUTOCLAVE” value [2] was 44 Shore OO and the “DUROMETER INITIAL” value [3] was 44 Shore OO.
For `CCOC(OCC)C(=O)c1ccccc1` [P-2, diethoxyacetophenone], the “DUROMETER HEAT AGED” value [1] was 30 Shore OO, the “DUROMETER AUTOCLAVE” value [2] was 47 Shore OO and the “DUROMETER INITIAL” value [3] was 42 Shore OO.
In the case of `CC(C)(O)C(=O)c1ccccc1` [P-1, 2 hydroxy-2-methylphenylpropan-1-one], the “DUROMETER HEAT AGED” value [1] is reported as 36 Shore OO, the “DUROMETER AUTOCLAVE” value [2] is reported as 39 Shore OO and the “DUROMETER INITIAL” value [3] is reported as 45 Shore OO.
